For data set [1], the system named is reserpine hypothermia. As to the kind of experiment: Prevention of Reserpine Hypothermia. Type of data set: in vivo, mice (Carworth Europe male). Particulars: for Reserpine Prevention Δ^6: 6 hours; for Reserpine Prevention Δ^24: 24 hours. On the procedure:
The method of Spencer [Antidepressant Drugs, 194 (1967) ] was used. Groups of ten mice are given oral doses of test compound 24 18 and 2 hours before an intravenous injection of reserpine base (Serpasil). Oral temperatures of the mice are taken immediately before administration of reserpine and then 2 4 6 and 24 hours afterwards.
Mean temperatures of groups given test compounds are compared with reserpinised controls using a Students t test. Compounds causing a significant difference at the level P < 0.001 are considered active. In order to quantify anti-reserpine activity cumulative temperature differences from controls at 6 hours and 24 hours (Δ^6 and Δ^24 ) are calculated.
(§1) Carworth Europe male mice are used for all experiments apart from that using the cat nictitating membrane and test compounds are administered orally as solutions in distilled water. Compounds for intravenous administration are dissolved in 0.9% saline apart from Reserpine which is dissolved in dilute acetic acid buffered to pH5. Unless otherwise stated, the dosing interval is one hour.
(§2) The Reserpine Prevention, Reserpine Reversal and Noradrenaline Uptake Inhibition tests were carried out as described in the previous Example. The Mydriasis tests was also as described in the previous Example but using 20 mg/kg doses of each compound after which a curve was plotted of percentage increase in pupil diameter vertus time and the percentage increase was integrated with respect to time for 0-120 minutes after dosing and the result expressed as a percentage.

Data set [2] relates to reserpine hypothermia. As to the kind of experiment: Reversal of Reserpine Hypothermia. The following applies: for Reserpine Reversal Δ^6: 6 hours; for Reserpine Reversal Δ^24: 24 hours. Type of data set: in vivo, mice (Carworth Europe male). On the procedure: Seventeen hours later the oral temperatures of the mice are taken and various doses of test compound or vehicle given subcutaneously. Temperatures are taken 1, 2, 4 6 and 24 hours later and the results are analysed as in Test 1 (The subcutaneous route is used for convenience as the very depressed reserpinised mice cannot be reliably dosed orally).
as §1, §2

The subject of a further data set is Noradrenaline uptake. Nature of the data set: Inhibition of Noradrenaline Uptake in vitro (brain synaptosomes). It counts as biochemical, male Wistar rats. The following applies: 10^-6 molar (Pharmacology 2). The procedure:
Synaptosomes are isolated from the brains of male Wistar rats (150-170g.) and monamine uptake determined by the method of Snyder and Coyle (1968) [Synder S. H. and Coyle J. T. J. Pharmac. exp. Ther. 165 (1968) 78-86]. Uptake was determined over a ten minute period instead of the normal five minutes.
as §2

Data set [3] concerns pupil diameter (mydriasis). As to the kind of experiment: Mydriasis integral 0-120 minutes. It counts as in vivo, mice. The following applies: for Mydriasis Integral Percent 120 Mins.: mice, 20 mg/kg, 0-120 minutes. The procedure:
Groups of five mice are pre-selected for uniformity of pupil diameter using a binocular microscope with a calibrated eye-piece. Pupil sizes are measured at various intervals after an intraperitoneal injection of test compound and at the peak time a curve plotted of percentage increase in pupil diameter versus log dose. From this the dose causing a 200% increase in pupil size (this lies on the linear part of the curve) is found
as §1, §2

The next data set has as its system central nervous system. Particulars: Barron et al, J. Pharm. Pharmacol., 17, 509 (1965); cited from earlier work.
[4] abbreviates: Pharmacology 2, dose 10 (unit not given).
Setting [5] is: Pharmacology 2, dose 20 (unit not given).
Setting [6] is: Pharmacology 2, dose 40 (unit not given).

`CN(C)CC(O)C(c1ccccc1)c1ccccc1` (single isomer, unassigned; (-)) [Compound C, (-)-3-Dimethylamino-1,1-diphenylpropan-2-ol]: the “Reserpine Prevention Δ^6” value in the data set on reserpine hypothermia [1] (setting [4]) is 11 °C; in the data set with reserpine hypothermia [1] (setting [5]) it was 13 °C; in the data set with reserpine hypothermia [1] (setting [6]), 12 °C. The “Reserpine Prevention Δ^24” value in the data set on reserpine hypothermia [1] (setting [4]) turned out to be 17 °C; in the data set with reserpine hypothermia [1] (setting [5]) it was 19 °C; with reserpine hypothermia [1] (setting [6]), 19 °C. Moreover, the “effects on the Reserpine Prevention tests” value with reserpine hypothermia [1] (comparison of the two isomers) is reported as “roughly equal effects”. The “Reserpine Reversal Δ^6” value in the data set with reserpine hypothermia [2] (setting [4]) came to 6 °C; in the data set on reserpine hypothermia [2] (setting [5]), 16 °C; in the data set with reserpine hypothermia [2] (setting [6]) it was 13 °C. The “Reserpine Reversal Δ^24” value with reserpine hypothermia [2] (setting [4]) came to 3 °C; in the data set with reserpine hypothermia [2] (setting [5]), 19 °C; in the data set on reserpine hypothermia [2] (setting [6]), 20 °C. In the data set with Noradrenaline uptake, the “Inhibition of Noradrenaline Uptake In Vitro %” value was 64%. In addition, the peripheral anticholinergic effects entry in data set [3] ((-)-isomer versus (+)-isomer) is given as “fewer peripheral anticholinergic effects than the (+)-isomer”. Further, the “Mydriasis Integral Percent 120 Mins.” value in data set [3] amounted to 6700%.

As for `CN(C)CCC(O)(c1ccccc1)c1ccccc1` [1:1-diphenyl-3-dimethylaminopopan-1-ol], in the data set with central nervous system, the “effects on the central nervous system” value is on record as “considerable effects on the central nervous system”; the side effects entry was “anorexia, diuresis, ataxia and drowsiness”.

For `CN(C)CC(O)C(c1ccccc1)c1ccccc1` (racemic) [Compound A, (±) -3-Dimethylamino-1,1-diphenylpropan-2-ol], the “Reserpine Prevention Δ^6” value was determined as 12 °C in the data set on reserpine hypothermia [1] (setting [4]), 15 °C with reserpine hypothermia [1] (setting [5]) and 15 °C with reserpine hypothermia [1] (setting [6]). Further, the “Reserpine Prevention Δ^24” value in the data set on reserpine hypothermia [1] (setting [4]) came out at 16 °C; with reserpine hypothermia [1] (setting [5]), 19 °C; in the data set with reserpine hypothermia [1] (setting [6]) it was 22 °C. Moreover, the “Reserpine Reversal Δ^6” value in the data set with reserpine hypothermia [2] (setting [4]) worked out at 16 °C; with reserpine hypothermia [2] (setting [5]), 14 °C; with reserpine hypothermia [2] (setting [6]), 15 °C. Moreover, the “Reserpine Reversal Δ^24” value amounted to 20 °C in the data set with reserpine hypothermia [2] (setting [4]), 17 °C with reserpine hypothermia [2] (setting [5]) and 20 °C in the data set with reserpine hypothermia [2] (setting [6]). The “Inhibition of Noradrenaline Uptake In Vitro %” value in the data set with Noradrenaline uptake is listed as 63%. The “Mydriasis Integral Percent 120 Mins.” value in data set [3] is recorded as 7400%.

These data come from patent US4101676A, “Diphenylpropylamines to treat depression” (Beecham Group Limited, priority 1973, dated 1978).
